Like-named read-outs stand apart in the source and are kept apart here.
How the values were obtained:
[1] = test system: Wistar rats aged 17 months; experiment: Object recognition in Wistar rats aged 17 months; type: in vivo, rat; conditions: male Wistar rats aged 17 months; 0.1 mg/kg by the oral route; 1 hour between sessions
Procedure: In old rats there is a deficiency in memory retention in the object recognition test. Prior to the test, the animals (male Wistar rats aged 17 months: CERJ, France) are habituated to the environment (an enclosure without an object). In the course of a first session, the rats are placed (3 minutes) in the enclosure, in which there are 2 identical objects. The duration of exploration is measured for each object. In the course of the second session (3 minutes), 1 hour later, 1 of the 2 objects is replaced by a new object. The duration of exploration is measured for each object. The assessment criterion is the difference, Delta, expressed in seconds, between the exploration times for the new object and for the familiar object in the course of the second session.

[2] = test system: Wistar rats aged 3 months; experiment: Object recognition in adult Wistar rats aged 3 months; type: in vivo, rat; conditions: male Wistar rats aged 3 months; 0.03 to 1 mg/kg by the oral route 60 minutes before each session; 24 hours between sessions
Text: The object recognition test in the Wistar rat was initially developed by ENNACEUR and DECACOUR (Behav. Brain Res., 1988, 31, 47-59). The test is based on the spontaneous exploratory activity of the animal and has the characteristics of episodic memory in humans. This memory test is sensitive to ageing (SCALL et al., Eur. J. Pharmacol., 1997, 325, 173-180) and to cholinergic dysfunctions (BARTOLINI et al., Pharm. Biochem. Behav. 1996, 53(2), 277-283) and is based on the differences in the exploration of 2 objects of fairly similar shape—one familiar, the other new. Prior to the test, the animals (male Wistar rats aged 3 months: CERJ, France) are habituated to the environment (an enclosure without an object). In the course of a first session, the rats are placed (3 minutes) in the enclosure, in which there are 2 identical objects. The duration of exploration is measured for each object. In the course of the second session (3 minutes), 24 hours later, 1 of the 2 objects is replaced by a new object. The duration of exploration is measured for each object. The assessment criterion is the difference, Delta, expressed in seconds, between the exploration times for the new object and for the familiar object in the course of the second session.

AMPA receptors = experiment: Effect of compounds on the ionic current induced by AMPA in Xenopus oocytes; type: cell-based; conditions: Xenopus oocytes injected with rat cerebral cortex mRNA, (S)-AMPA 10 μM, voltage-clamp
Procedure: mRNA's are prepared from cerebral cortex of male Wistar rats by the caesium chloride/guanidium thiocyanate method. The poly (A^+) mRNA's are isolated using the PolyATtract mRNA Isolation systems kit (Promega, USA) and injected at a level of 50 ng per oocyte. The oocytes are incubated for 3 to 4 days at 18° C. to permit expression of the receptors and are then stored at 4° C. until used.
Electrophysiological recordings are carried out continuously at ambient temperature in a Plexiglass® chamber using OR2 medium (J. Exp. Zool., 1973, 184, 321-334) by the “voltage-clamp” method using two electrodes, with a third electrode placed in the bath serving as reference.
All the compounds and the AMPA are applied via the perfusion medium. (S)-AMPA is used in a concentration of 10 μM. The ionic current induced by the application of AMPA in the absence and presence of compounds is measured. For each compound studied, the concentration that doubles (EC2×) or quintuples (EC5×) the intensity of the current induced by AMPA alone (5 to 50 nA) is determined.

O=S1(=O)NCN(CCF)c2ccc(Cl)cc21 [Example 1, 7-Chloro-4-(2-fluoroethyl)-3,4-dihydro-2H-1,2,4-benzothiadiazine 1,1-dioxide]
age-related deficiency in memory retention (object recognition) [1]: significantly opposes the age-related deficiency in memory retention
memory retention (object recognition, Delta of exploration times) [2]: significantly improves memory retention
concentration multiplying AMPA current (EC2× / EC5×) (AMPA receptors; read-out: EC2× (concentration that doubles the intensity of the current induced by AMPA alone)): 6.7 ± 1.4 µM
concentration multiplying AMPA current (EC2× / EC5×) (AMPA receptors; read-out: EC5× (concentration that quintuples the intensity of the current induced by AMPA alone)): 14.5 ± 0.6 µM

From US7268129B2, “Fluorinated benzothiadiazine compounds” (Les Laboratoires Servier, priority 2005, dated 2007)
